Measurements: PMC2811323 (The Journal of neuroscience : the official journal of the …, 2009)

Assays:
hM1 receptor = assay: Millipore GPCR Profiler functional screen, hM1; type: cell-based, human; settings: two-addition protocol, BQCA 12.5 μM in first addition
hM4 receptor = assay: Millipore GPCR Profiler functional screen, hM4; type: cell-based, human; settings: two-addition protocol, BQCA 12.5 μM in first addition
[1] = test system: 15 other closely related GPCRs; assay: Millipore GPCR Profiler functional screen, GPCR panel; type: cell-based
[2] = test system: rat mPFC layer V pyramidal cells; assay: Inward; type: cell-based
[3] = test system: rat mPFC layer V pyramidal cells; assay: Spontaneous EPSCs in acute rat brain slices; type: cell-based
[4] = test system: mPFC layer V neurons, wildtype (WT) mice; assay: Spontaneous EPSCs in slices from wild-type mice; type: cell-based, mouse
[5] = test system: rat mPFC layer V pyramidal cells; type: cell-based; settings: 10 μM; 1 μM TTX
[6] = 10 μM applied alone, −70 mV, 1 μM TTX

COc1ccc(Cn2cc(C(=O)[O-])c(=O)c3ccccc32)cc1.[Na+] [BQCA, Sodium 1-(4-methoxybenzyl)-4-oxo-1,4-dihydroquinoline-3-carboxylate]
Potentiation of the functional response (hM1 receptor): robust potentiation
Activity in the functional screen (hM4 receptor): no activity
Agonist activity when applied alone in the first addition ([1]; 12.5 μM, any receptor tested): no agonist activity
Effect (PAM or antagonist activity) at the other GPCRs tested ([1]; two-addition protocol, BQCA 12.5 μM in first addition): no effect

C[N+](C)(C)CCOC(N)=O [CCh, carbachol]
Inward current (change in holding current) [2, 6]: 16.55 ± 1.93 pA
Inward current (change in holding current) ([2]; 100 μM applied alone, −70 mV, 1 μM TTX): 53.14 ± 5.92 pA
sEPSC amplitude ([3]; 10 μM applied alone): 97.5 ± 4.4 % control
sEPSC frequency ([3]; 10 μM applied alone): 90.1 ± 12.4 % control
sEPSC amplitude ([3]; 30 μM applied alone): 108.3 ± 3.9 % control
sEPSC frequency ([3]; 30 μM applied alone): 455.0 ± 101.9 % control
sEPSC amplitude ([3]; 100 μM applied alone): 154.3 ± 46.2 % control
sEPSC frequency ([3]; 100 μM applied alone): 887.6 ± 268.5 % control
sEPSC amplitude ([4]; 3 μM applied alone): 102.6 ± 11.7 % of control
sEPSC frequency ([4]; 3 μM applied alone): 83.2 ± 47.1%
sEPSC amplitude ([4]; 30 μM applied alone): 143.1 ± 22.0%
sEPSC frequency ([4]; 30 μM applied alone): 398.3 ± 56.2%
mEPSC amplitude [5]: 88.6 ± 3.8 % control

O=C(CCNS(=O)(=O)c1cccc2nsnc12)N1CCN(c2ccncc2)CC1 [VU0255035]
Inward current (change in holding current) [2, 6]: no effect
Inward current (change in holding current) ([2]; 100 μM CCh in the presence of 10 μM VU0255035): 11.78 ± 1.90 pA
sEPSC amplitude ([3]; 5 μM antagonist with 30 μM CCh): 87.1 ± 3.5 % control
sEPSC frequency ([3]; 5 μM antagonist with 30 μM CCh): 62.5 ± 10.1 % control
sEPSC amplitude ([3]; 5 μM applied alone): 92.9 ± 3.4 % control
sEPSC frequency ([3]; 5 μM applied alone): 114.1 ± 25.8 % control
